Laboratory results reported in US9029389B2 (Institut Pasteur Korea, priority 2011, dated 2015).

Columns and labels:
Human 5-lipoxygenase = target: T1, Human 5-lipoxygenase (Homo sapiens, UniProt P09917); experiment: Activity of compounds against 5-LO enzyme (LTB4 measurement and/or fluorescence method); format: biochemical; conditions: for inhibition at 10 µM: 5-LO, single concentration of 10 uM in duplicate; for IC50: 6 or 11 point dose response in duplicate
T1 construct: purchased Cayman 60402; host or cells: insect cells
T1 sequence (P09917 1-674): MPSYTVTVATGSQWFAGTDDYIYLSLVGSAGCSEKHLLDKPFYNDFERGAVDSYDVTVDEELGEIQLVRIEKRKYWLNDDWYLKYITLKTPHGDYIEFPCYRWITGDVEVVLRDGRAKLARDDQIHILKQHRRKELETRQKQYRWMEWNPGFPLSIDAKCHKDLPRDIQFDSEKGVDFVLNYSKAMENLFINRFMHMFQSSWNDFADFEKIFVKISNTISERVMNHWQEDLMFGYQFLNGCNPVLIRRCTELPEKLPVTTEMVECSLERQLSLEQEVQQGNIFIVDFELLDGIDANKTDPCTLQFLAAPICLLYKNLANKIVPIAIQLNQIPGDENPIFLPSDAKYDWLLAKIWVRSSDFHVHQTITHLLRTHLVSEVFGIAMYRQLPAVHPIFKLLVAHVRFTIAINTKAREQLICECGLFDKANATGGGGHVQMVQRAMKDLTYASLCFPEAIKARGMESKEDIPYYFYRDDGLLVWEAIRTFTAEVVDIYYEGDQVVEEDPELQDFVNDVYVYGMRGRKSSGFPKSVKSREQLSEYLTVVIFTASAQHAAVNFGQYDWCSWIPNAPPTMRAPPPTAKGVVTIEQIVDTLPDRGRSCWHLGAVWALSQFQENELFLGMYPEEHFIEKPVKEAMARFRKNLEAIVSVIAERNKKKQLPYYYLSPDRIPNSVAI
How it was run: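 Two read-outs: LTB4 measured by EIA and/or LC/MS/MS with LTB4-d4 standard after 15 min RT compound preincubation with insect-cell 5-LO and a 5 min 37 °C reaction on 3 uM arachidonic acid (0.1 mM ATP, pH 7.4). The room-temperature fluorescence format used 20 uM H2DCFDA, 100 uM ATP, 3 uM arachidonic acid, 5 min; IC50 from 6/11-point curves.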

CCc1nc2cc(C)ccn2c1C(=O)NCc1ccc(N2CCN(c3ccc(F)cc3)CC2)cc1 [compound 220, 2-Ethyl-N-(4-(4-(4-fluorophenyl)piperazin-1-yl)benzyl)-7-methylimidazo[1,2-a]pyridine-3-carboxamide]
inhibition at 10 µM (Human 5-lipoxygenase): 40 to 69% | melting point: 203.7 °C

CCc1nc2ccc(Cl)cn2c1C(=O)NCc1ccc(N2CCC3CCCCC3C2)cc1 (stereo not drawn) [compound 221, 6-Chloro-2-ethyl-N-(4-(octahydroisoquinolin-2(1H)-yl)benzyl)imidazo[1,2-a]pyridine-3-carboxamide]
inhibition at 10 µM (Human 5-lipoxygenase): < 40% | melting point: 141.7 °C

CCc1nc2cc(Cl)ccn2c1C(=O)NCc1ccc(N2CCC3CCCCC3C2)cc1 (stereo not drawn) [compound 222, 7-Chloro-2-ethyl-N-(4-(octahydroisoquinolin-2(1H)-yl)benzyl)imidazo[1,2-a]pyridine-3-carboxamide]
inhibition at 10 µM (Human 5-lipoxygenase): < 40% | melting point: 174.2 °C

CCc1nc2c(F)cccn2c1C(=O)NCc1ccc(N2CCN(c3ccc(F)cc3)CC2)cc1 [compound 223, 2-Ethyl-8-fluoro-N-(4-(4-(4-fluorophenyl)piperazin-1-yl)benzyl)imidazo[1,2-a]pyridine-3-carboxamide]
inhibition at 10 µM (Human 5-lipoxygenase): > 69% | IC50 (Human 5-lipoxygenase): 1000 to 20000 nM | melting point: 204.1 °C

CCc1nc2c(F)cccn2c1C(=O)NCc1ccc(Oc2ccc(OC(F)(F)F)cc2)cc1 [compound 224, 2-Ethyl-8-fluoro-N-(4-(4-(trifluoromethoxy)phenoxy)benzyl)imidazo[1,2-a]pyridine-3-carboxamide]
inhibition at 10 µM (Human 5-lipoxygenase): > 69% | IC50 (Human 5-lipoxygenase): < 1000 nM | melting point: 105.6 °C

CCc1nc2ccc(F)cn2c1C(=O)NCc1ccc(Oc2ccc(OC(F)(F)F)cc2)cc1 [compound 225, 2-Ethyl-6-fluoro-N-(4-(4-(trifluoromethoxy)phenoxy)benzyl)imidazo[1,2-a]pyridine-3-carboxamide]
inhibition at 10 µM (Human 5-lipoxygenase): > 69% | IC50 (Human 5-lipoxygenase): < 1000 nM | melting point: 133.4 °C

CCc1nc2ccc(Br)cn2c1C(=O)NCc1ccc(Oc2ccc(OC(F)(F)F)cc2)cc1 [compound 226, 6-Bromo-2-ethyl-N-(4-(4-(trifluoromethoxy)phenoxy)benzyl)imidazo[1,2-a]pyridine-3-carboxamide]
inhibition at 10 µM (Human 5-lipoxygenase): < 40% | melting point: 152.9 °C

CCc1nc2ccccn2c1C(=O)NCc1ccc(N2CCN(c3ccc(F)cc3)CC2)cc1 [compound 227, 2-Ethyl-N-(4-(4-(4-fluorophenyl)piperazin-1-yl)benzyl)imidazo[1,2-a]pyridine-3-carboxamide]
inhibition at 10 µM (Human 5-lipoxygenase): > 69% | IC50 (Human 5-lipoxygenase): 1000 to 20000 nM | melting point: 189.2 °C

CCc1nc2ccc(F)cn2c1C(=O)NCc1ccc(N2CCN(c3ccc(F)cc3)CC2)cc1 [compound 228, 2-Ethyl-6-fluoro-N-(4-(4-(4-fluorophenyl)piperazin-1-yl)benzyl)imidazo[1,2-a]pyridine-3-carboxamide]
inhibition at 10 µM (Human 5-lipoxygenase): > 69% | IC50 (Human 5-lipoxygenase): 1000 to 20000 nM | melting point: 200.9 °C

CCc1nc2ccc(Br)cn2c1C(=O)NCc1ccc(N2CCN(c3ccc(F)cc3)CC2)cc1 [compound 229, 6-Bromo-2-ethyl-N-(4-(4-(4-fluorophenyl)piperazin-1-yl)benzyl)imidazo[1,2-a]pyridine-3-carboxamide]
inhibition at 10 µM (Human 5-lipoxygenase): < 40% | melting point: 218.1 °C

CCc1nc2ccc(Cl)cn2c1C(=O)NCc1ccc(N2CCC(CO)CC2)cc1 [compound 230, 6-Chloro-2-ethyl-N-(4-(4-(hydroxymethyl)piperidin-1-yl)benzyl)imidazo[1,2-a]pyridine-3-carboxamide]
inhibition at 10 µM (Human 5-lipoxygenase): < 40% | melting point: 161.1 °C

CCc1nc2ccc(C)cn2c1C(=O)NCc1ccc(N2CCN(c3ccc(F)cc3)CC2)cc1 [compound 231, 2-Ethyl-N-(4-(4-(4-fluorophenyl)piperazin-1-yl)benzyl)-6-methylimidazo[1,2-a]pyridine-3-carboxamide]
inhibition at 10 µM (Human 5-lipoxygenase): > 69% | IC50 (Human 5-lipoxygenase): 1000 to 20000 nM | melting point: 187.6 °C

CCc1nc2ccc(Cl)cn2c1C(=O)NCc1ccc(N2CCC(C(F)(F)F)CC2)cc1 [compound 233, 6-Chloro-2-ethyl-N-(4-(4-(trifluoromethyl)piperidin-1-yl)benzyl)imidazo[1,2-a]pyridine-3-carboxamide]
inhibition at 10 µM (Human 5-lipoxygenase): 40 to 69% | melting point: 197.9 °C

CCc1nc2cc(Cl)ccn2c1C(=O)NCc1ccc(N2CCC(C(F)(F)F)CC2)cc1 [compound 234, 7-Chloro-2-ethyl-N-(4-(4-(trifluoromethyl)piperidin-1-yl)benzyl)imidazo[1,2-a]pyridine-3-carboxamide]
inhibition at 10 µM (Human 5-lipoxygenase): < 40% | melting point: 209.4 °C

CCc1nc2ccc(Cl)cn2c1C(=O)NCc1ccc(N2CCC(F)(F)CC2)cc1 [compound 235, 6-chloro-N-(4-(4,4-difluoropiperidin-1-yl)benzyl)-2-ethylimidazo[1,2-a]pyridine-3-carboxamide]
inhibition at 10 µM (Human 5-lipoxygenase): < 40% | melting point: 194.2 °C

CCc1nc2cc(Cl)ccn2c1C(=O)NCc1ccc(N2CCC(F)(F)CC2)cc1 [compound 236, 7-Chloro-N-(4-(4,4-difluoropiperidin-1-yl)benzyl)-2-ethylimidazo[1,2-a]pyridine-3-carboxamide]
inhibition at 10 µM (Human 5-lipoxygenase): 40 to 69% | melting point: 166.3 °C

CCc1nc2ccc(Cl)cn2c1C(=O)NCc1ccc(N2CCN3CCCC3C2)cc1 (stereo not drawn) [compound 237, 6-Chloro-2-ethyl-N-(4-(hexahydropyrrolo[1,2-a]pyrazin-2(1H)-yl)benzyl)imidazo[1,2-a]pyridine-3-carboxamide]
inhibition at 10 µM (Human 5-lipoxygenase): < 40% | melting point: 163 °C

CCNC(=O)c1c(CC)nc2ccc(Cl)cn12 [compound 238, 6-Chloro-N,2-diethylimidazo[1,2-a]pyridine-3-carboxamide]
inhibition at 10 µM (Human 5-lipoxygenase): < 40% | melting point: 176.7 °C

CCc1nc2ccc(Cl)cn2c1C(=O)NCC(C)C [compound 239, 6-Chloro-2-ethyl-N-isobutylimidazo[1,2-a]pyridine-3-carboxamide]
inhibition at 10 µM (Human 5-lipoxygenase): < 40% | melting point: 162.2 °C

CCc1nc2ccc(Br)cn2c1C(=O)NCc1ccc(N2CCOCC2)cc1 [compound 240, 6-Bromo-2-ethyl-N-(4-morpholinobenzyl)imidazo[1,2-a]pyridine-3-carboxamide]
inhibition at 10 µM (Human 5-lipoxygenase): < 40% | melting point: 228.2 °C

CCc1nc2c(F)cccn2c1C(=O)NCc1ccc(N2CCOCC2)cc1 [compound 242, 2-Ethyl-8-fluoro-N-(4-morpholinobenzyl)imidazo[1,2-a]pyridine-3-carboxamide]
inhibition at 10 µM (Human 5-lipoxygenase): < 40% | melting point: 197.3 °C

CCc1nc2ccccn2c1C(=O)NCc1ccc(N2CCC(COc3ccc(F)cc3)CC2)cc1 [compound 243, 2-Ethyl-N-(4-(4-((4-fluorophenoxy)methyl)piperidin-1-yl)benzyl)imidazo[1,2-a]pyridine-3-carboxamide]
inhibition at 10 µM (Human 5-lipoxygenase): > 69% | IC50 (Human 5-lipoxygenase): < 1000 nM | melting point: 144.2 °C

CCc1nc2ccc(Cl)cn2c1C(=O)NCc1ccc(N2CCC(COc3ccc(F)cc3)CC2)cc1 [compound 244, 6-Chloro-2-ethyl-N-(4-(4-((4-fluorophenoxy)methyl)piperidin-1-yl)benzyl)imidazo[1,2-a]pyridine-3-carboxamide]
inhibition at 10 µM (Human 5-lipoxygenase): 40 to 69% | melting point: 171 °C

CCc1nc2cc(Cl)ccn2c1C(=O)NCc1ccc(N2CCC(COc3ccc(F)cc3)CC2)cc1 [compound 245, 7-Chloro-2-ethyl-N-(4-(4-((4-fluorophenoxy)methyl)piperidin-1-yl)benzyl)imidazo[1,2-a]pyridine-3-carboxamide]
inhibition at 10 µM (Human 5-lipoxygenase): < 40% | melting point: 186.5 °C

CCc1nc2cc(N3CCN(c4ccccc4)CC3)ccn2c1C(=O)NCc1ccc(C(F)(F)F)cc1 [compound 246, 2-Ethyl-7-(4-phenylpiperazin-1-yl)-N-(4-(trifluoromethyl)benzyl)imidazo[1,2-a]pyridine-3-carboxamide]
inhibition at 10 µM (Human 5-lipoxygenase): < 40% | melting point: 235.2 °C

CCc1nc2ccc(Cl)cn2c1C(=O)NCc1ccc(N2CCC(COC)CC2)cc1 [compound 247, 6-Chloro-2-ethyl-N-(4-(4-(methoxymethyl)piperidin-1-yl)benzyl)imidazo[1,2-a]pyridine-3-carboxamide]
inhibition at 10 µM (Human 5-lipoxygenase): 40 to 69% | melting point: 162.1 °C

CCc1nc2cc(Cl)ccn2c1C(=O)NCc1ccc(N2CCC(COC)CC2)cc1 [compound 248, 7-Chloro-2-ethyl-N-(4-(4-(methoxymethyl)piperidin-1-yl)benzyl)imidazo[1,2-a]pyridine-3-carboxamide]
inhibition at 10 µM (Human 5-lipoxygenase): < 40% | melting point: 172.5 °C

CCc1nc2ccc(Cl)cn2c1C(=O)NCc1ccc(N2CCC(c3ccc(F)cc3)CC2)cc1 [compound 249, 6-Chloro-2-ethyl-N-(4-(4-(4-fluorophenyl)piperidin-1-yl)benzyl)imidazo[1,2-a]pyridine-3-carboxamide]
inhibition at 10 µM (Human 5-lipoxygenase): 40 to 69% | melting point: 164 °C
